US10202361B2, “Pyridazinones as herbicides” (E I DU PONT DE NEMOURS AND COMPANY, priority 2014, dated 2019)

Columns and labels:
Test in all cases: Test D pre-/postemergence controlled growth environment herbicide test
Assay type in all cases: in vivo
Conditions in all cases: scale 0 to 100
[1] = tested on: canarygrass (Phalaris minor)
Excerpt: (§1) Seeds of plant species selected from bluegrass (annual bluegrass, Poa annua), blackgrass (Alopecurus myosuroides), canarygrass (Phalaris minor), chickweed (common chickweed, Stellaria media), galium (catchweed bedstraw, Galium aparine), downy bromegrass (Bromus tectorum), field poppy (Papaver rhoeas), field violet (Viola arvensis), foxtail, green (green foxtail, Setaria viridis), deadnettle (henbit deadnettle, Lamium amplexicaule), ryegrass, Italian (Italian ryegrass, Lolium multiflorum), kochia (Kochia scoparia), lambsquarters (Chenopodium album), oilseed rape (Brassica napus), pigweed (Amaranthus retroflexus), chamomile (scentless chamomile, Matricaria inodora), Russian thistle (Salsola kali), speedwell (bird's-eye speedwell, Veronica persica), barley, spring (spring barley, Hordeum vulgare), wheat, spring (spring wheat, Triticum aestivum), buckwheat, wild (wild buckwheat, Polygonum convolvulus), mustard, wild (wild mustard, Sinapis arvensis), oat, wild (wild oat, Avena fatua), radish, wild (wild radish, Raphanus raphanistrum), windgrass (Apera spica-venti), barley, winter (winter barley, Hordeum vulgare), and wheat, winter (winter wheat, Triticum aestivum) were planted into a silt loam soil and treated preemergence with test chemicals formulated in a non-phytotoxic solvent mixture which included a surfactant.
(§2) At the same time, these species were planted in pots containing Redi-Earth® planting medium (Scotts Company, 14111 Scottslawn Road, Marysville, Ohio 43041) comprising spaghnum peat moss, vermiculite, wetting agent and starter nutrients and treated with postemergence applications of the test chemicals formulated in the same manner. Plants ranged in height from 2 to 18 cm (1- to 4-leaf stage). Treated plants and controls were maintained in a controlled growth environment for 14 to 21 d after which time all species were compared to controls and visually evaluated. Plant response ratings, summarized in Table D, are based on a scale of 0 to 100 where 0 is no effect and 100 is complete control. A dash (-) response means no test result.

[2] = tested on: foxtail, green (green foxtail, Setaria viridis)
Excerpt: as §1, §2

[3] = tested on: kochia (Kochia scoparia)
Excerpt: as §1, §2

[4] = tested on: chickweed (common chickweed, Stellaria media)
Excerpt: as §1, §2

[5] = tested on: deadnettle (henbit deadnettle, Lamium amplexicaule)
Excerpt: as §1, §2

[6] = tested on: barley, winter (winter barley, Hordeum vulgare)
Excerpt: as §1, §2

[7] = tested on: blackgrass (Alopecurus myosuroides)
Excerpt: as §1, §2

[8] = tested on: lambsquarters (Chenopodium album)
Excerpt: as §1, §2

[9] = tested on: field poppy (Papaver rhoeas)
Excerpt: as §1, §2

[10] = tested on: bluegrass (annual bluegrass, Poa annua)
Excerpt: as §1, §2

[11] = tested on: oat, wild (wild oat, Avena fatua)
Excerpt: as §1, §2

## Cc1cc(=O)n(-c2ccc(F)cc2)nc1Oc1ccnc(C(F)(F)F)c1 [Compound 14, 2-(4-fluorophenyl)-5-methyl-6-[[2-(trifluoromethyl)-4-pyridinyl]oxy]-3 (2H)-pyridazinone]
[1]; Postemergence, 16 g ai/ha
  Plant response rating: 15
[1]; Postemergence, 31 g ai/ha
  Plant response rating: 15
[1]; Postemergence, 62 g ai/ha
  Plant response rating: 15
[1]; Postemergence, 125 g ai/ha
  Plant response rating: 20
[1]; Postemergence, 250 g ai/ha
  Plant response rating: 25
[1]; Preemergence, 16 g ai/ha
  Plant response rating: 5
[1]; Preemergence, 31 g ai/ha
  Plant response rating: 5
[1]; Preemergence, 62 g ai/ha
  Plant response rating: 20
[1]; Preemergence, 125 g ai/ha
  Plant response rating: 35
[1]; Preemergence, 250 g ai/ha
  Plant response rating: 80
[2]; Postemergence, 16 g ai/ha
  Plant response rating: 30
[2]; Postemergence, 31 g ai/ha
  Plant response rating: 10
[2]; Postemergence, 62 g ai/ha
  Plant response rating: 20
[2]; Postemergence, 125 g ai/ha
  Plant response rating: 15
[2]; Postemergence, 250 g ai/ha
  Plant response rating: 15
[2]; Preemergence, 16 g ai/ha
  Plant response rating: 0
[2]; Preemergence, 31 g ai/ha
  Plant response rating: 15
[2]; Preemergence, 62 g ai/ha
  Plant response rating: 40
[2]; Preemergence, 125 g ai/ha
  Plant response rating: 70
[2]; Preemergence, 250 g ai/ha
  Plant response rating: 100
[3]; Postemergence, 16 g ai/ha
  Plant response rating: 60
[3]; Postemergence, 31 g ai/ha
  Plant response rating: 60
[3]; Postemergence, 62 g ai/ha
  Plant response rating: 65
[3]; Postemergence, 125 g ai/ha
  Plant response rating: 85
[3]; Postemergence, 250 g ai/ha
  Plant response rating: 90
[3]; Preemergence, 16 g ai/ha
  Plant response rating: 35
[3]; Preemergence, 31 g ai/ha
  Plant response rating: 65
[3]; Preemergence, 62 g ai/ha
  Plant response rating: 95
[3]; Preemergence, 125 g ai/ha
  Plant response rating: 70
[3]; Preemergence, 250 g ai/ha
  Plant response rating: 100
[4]; Postemergence, 16 g ai/ha
  Plant response rating: 50
[4]; Postemergence, 31 g ai/ha
  Plant response rating: 60
[4]; Postemergence, 62 g ai/ha
  Plant response rating: 45
[4]; Postemergence, 125 g ai/ha
  Plant response rating: 70
[4]; Postemergence, 250 g ai/ha
  Plant response rating: 90
[4]; Preemergence, 16 g ai/ha
  Plant response rating: 10
[4]; Preemergence, 125 g ai/ha
  Plant response rating: 100
[4]; Preemergence, 250 g ai/ha
  Plant response rating: 95
[5]; Postemergence, 16 g ai/ha
  Plant response rating: 50
[5]; Postemergence, 31 g ai/ha
  Plant response rating: 60
[5]; Postemergence, 62 g ai/ha
  Plant response rating: 60
[5]; Postemergence, 125 g ai/ha
  Plant response rating: 65
[5]; Postemergence, 250 g ai/ha
  Plant response rating: 80
[5]; Preemergence, 16 g ai/ha
  Plant response rating: 60
[5]; Preemergence, 31 g ai/ha
  Plant response rating: 15
[5]; Preemergence, 62 g ai/ha
  Plant response rating: 40
[5]; Preemergence, 125 g ai/ha
  Plant response rating: 65
[5]; Preemergence, 250 g ai/ha
  Plant response rating: 100
[6]; Postemergence, 16 g ai/ha
  Plant response rating: 10
[6]; Postemergence, 31 g ai/ha
  Plant response rating: 15
[6]; Postemergence, 62 g ai/ha
  Plant response rating: 20
[6]; Postemergence, 125 g ai/ha
  Plant response rating: 20
[6]; Postemergence, 250 g ai/ha
  Plant response rating: 25
[6]; Preemergence, 16 g ai/ha
  Plant response rating: 15
[6]; Preemergence, 31 g ai/ha
  Plant response rating: 5
[6]; Preemergence, 62 g ai/ha
  Plant response rating: 5
[6]; Preemergence, 125 g ai/ha
  Plant response rating: 5
[6]; Preemergence, 250 g ai/ha
  Plant response rating: 5
[7]; Postemergence, 16 g ai/ha
  Plant response rating: 5
[7]; Postemergence, 31 g ai/ha
  Plant response rating: 10
[7]; Postemergence, 62 g ai/ha
  Plant response rating: 10
[7]; Postemergence, 125 g ai/ha
  Plant response rating: 10
[7]; Postemergence, 250 g ai/ha
  Plant response rating: 10
[7]; Preemergence, 16 g ai/ha
  Plant response rating: 0
[7]; Preemergence, 31 g ai/ha
  Plant response rating: 0
[7]; Preemergence, 62 g ai/ha
  Plant response rating: 10
[7]; Preemergence, 125 g ai/ha
  Plant response rating: 20
[7]; Preemergence, 250 g ai/ha
  Plant response rating: 70
[8]; Postemergence, 16 g ai/ha
  Plant response rating: 55
[8]; Postemergence, 31 g ai/ha
  Plant response rating: 60
[8]; Postemergence, 62 g ai/ha
  Plant response rating: 70
[8]; Postemergence, 125 g ai/ha
  Plant response rating: 80
[8]; Postemergence, 250 g ai/ha
  Plant response rating: 90
[8]; Preemergence, 16 g ai/ha
  Plant response rating: 5
[8]; Preemergence, 31 g ai/ha
  Plant response rating: 25
[8]; Preemergence, 62 g ai/ha
  Plant response rating: 20
[8]; Preemergence, 125 g ai/ha
  Plant response rating: 95
[8]; Preemergence, 250 g ai/ha
  Plant response rating: 95
[9]; Postemergence, 16 g ai/ha
  Plant response rating: 75
[9]; Postemergence, 31 g ai/ha
  Plant response rating: 20
[9]; Postemergence, 62 g ai/ha
  Plant response rating: 75
[9]; Postemergence, 125 g ai/ha
  Plant response rating: 50
[9]; Postemergence, 250 g ai/ha
  Plant response rating: 80
[9]; Preemergence, 16 g ai/ha
  Plant response rating: 95
[9]; Preemergence, 31 g ai/ha
  Plant response rating: 100
[9]; Preemergence, 62 g ai/ha
  Plant response rating: 100
[9]; Preemergence, 125 g ai/ha
  Plant response rating: 100
[9]; Preemergence, 250 g ai/ha
  Plant response rating: 100
[10]; Postemergence, 16 g ai/ha
  Plant response rating: 15
[10]; Postemergence, 31 g ai/ha
  Plant response rating: 20
[10]; Postemergence, 62 g ai/ha
  Plant response rating: 20
[10]; Postemergence, 125 g ai/ha
  Plant response rating: 15
[10]; Postemergence, 250 g ai/ha
  Plant response rating: 30
[10]; Preemergence, 16 g ai/ha
  Plant response rating: 5
[10]; Preemergence, 31 g ai/ha
  Plant response rating: 0
[10]; Preemergence, 62 g ai/ha
  Plant response rating: 0
[10]; Preemergence, 125 g ai/ha
  Plant response rating: 10
[10]; Preemergence, 250 g ai/ha
  Plant response rating: 35
[11]; Postemergence, 16 g ai/ha
  Plant response rating: 10
[11]; Postemergence, 31 g ai/ha
  Plant response rating: 10
[11]; Postemergence, 62 g ai/ha
  Plant response rating: 15
[11]; Postemergence, 125 g ai/ha
  Plant response rating: 20
[11]; Postemergence, 250 g ai/ha
  Plant response rating: 30
[11]; Preemergence, 16 g ai/ha
  Plant response rating: 0
[11]; Preemergence, 31 g ai/ha
  Plant response rating: 0
[11]; Preemergence, 62 g ai/ha
  Plant response rating: 0
[11]; Preemergence, 125 g ai/ha
  Plant response rating: 10
[11]; Preemergence, 250 g ai/ha
  Plant response rating: 20
